Measurements as given in patent publication US20250197372A1 (priority 2020, published 2025).
Read-outs that look alike come from different tables or passages of the source.

Columns and labels:
Format in all cases: biochemical
[1] = molecular target: T1, recombinant alpha-glucosidase I (human full-length glucosidase I, Glu 1) (Homo sapiens, UniProt Q13724); experiment: Alpha-glucosidase I assay (Amplex Red glucose detection, synthetic trisaccharide substrate)
T1 construct: 6-His (C); made in house; host or cells: HEK-293T cells transduced with BacMam virus (virus raised in Sf9)
T1 sequence (Q13724 1-837): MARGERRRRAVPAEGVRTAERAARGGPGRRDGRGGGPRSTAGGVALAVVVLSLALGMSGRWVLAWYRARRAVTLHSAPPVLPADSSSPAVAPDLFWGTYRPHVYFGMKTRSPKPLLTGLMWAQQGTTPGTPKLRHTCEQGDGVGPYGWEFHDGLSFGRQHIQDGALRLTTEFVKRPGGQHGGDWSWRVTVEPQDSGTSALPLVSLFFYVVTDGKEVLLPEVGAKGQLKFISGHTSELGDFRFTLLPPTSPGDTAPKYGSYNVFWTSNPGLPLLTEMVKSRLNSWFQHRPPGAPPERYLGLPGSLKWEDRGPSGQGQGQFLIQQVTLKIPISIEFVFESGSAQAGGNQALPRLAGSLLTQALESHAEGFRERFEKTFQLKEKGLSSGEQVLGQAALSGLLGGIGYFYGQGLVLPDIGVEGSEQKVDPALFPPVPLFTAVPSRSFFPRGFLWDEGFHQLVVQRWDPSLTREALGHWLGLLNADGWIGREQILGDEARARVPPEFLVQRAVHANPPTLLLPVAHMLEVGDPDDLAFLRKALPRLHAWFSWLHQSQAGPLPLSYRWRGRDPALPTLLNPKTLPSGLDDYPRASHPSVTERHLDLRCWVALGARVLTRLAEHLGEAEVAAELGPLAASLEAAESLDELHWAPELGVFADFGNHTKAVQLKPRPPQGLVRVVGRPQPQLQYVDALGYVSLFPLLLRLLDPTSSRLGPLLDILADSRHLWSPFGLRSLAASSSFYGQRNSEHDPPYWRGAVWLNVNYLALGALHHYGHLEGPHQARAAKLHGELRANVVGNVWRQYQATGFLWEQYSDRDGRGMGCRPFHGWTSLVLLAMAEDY
Outline: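 Compound dilution series incubated 60 min at 37° C with recombinant His-tagged human glucosidase I ([…]), after which trisaccharide substrate analog was added for 90 min at 37° C. Reaction quenched with 1.5M Tris pH 8; D-glucose detected by Amplex Red fluorescence, 560/590 nm. 4-PL curve fit of percent inhibition gave IC50.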

[2] = molecular target: T2, recombinant alpha-glucosidase II (murine full-length glucosidase II, alpha and beta subunits, Glu 2) (Mus musculus, UniProt Q8BHN3); experiment: Alpha-glucosidase II assay (4-methylumbelliferyl-alpha-D-pyranoside substrate, fluorescence); conditions: Glucosidase 2; read-out: Glu2 IC50
T2 construct: made in house; host or cells: HEK-293T cells transduced with BacMam viruses (75% alpha, 25% beta); protein harvested from culture supernatant

[3] = molecular target: recombinant human GAA (acid alpha-glucosidase) (Homo sapiens, UniProt P10253); experiment: Acid alpha-glucosidase (GAA) assay (4-methylumbelliferyl-alpha-D-pyranoside substrate, fluorescence)
Outline: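 IC50 from 4-PL curve fit of percent inhibition, based on fluorescence (365/440 nm) of released methylumbelliferone relative to uninhibited enzyme. Compound dilutions and human GAA incubated 60 min, 37 °C, before 20 min substrate reaction at 37 °C, quenched at pH 10.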

[4] = Glucosidase 1, read-out: Glu 1 IC50

T2 sequence (O08795 15-521): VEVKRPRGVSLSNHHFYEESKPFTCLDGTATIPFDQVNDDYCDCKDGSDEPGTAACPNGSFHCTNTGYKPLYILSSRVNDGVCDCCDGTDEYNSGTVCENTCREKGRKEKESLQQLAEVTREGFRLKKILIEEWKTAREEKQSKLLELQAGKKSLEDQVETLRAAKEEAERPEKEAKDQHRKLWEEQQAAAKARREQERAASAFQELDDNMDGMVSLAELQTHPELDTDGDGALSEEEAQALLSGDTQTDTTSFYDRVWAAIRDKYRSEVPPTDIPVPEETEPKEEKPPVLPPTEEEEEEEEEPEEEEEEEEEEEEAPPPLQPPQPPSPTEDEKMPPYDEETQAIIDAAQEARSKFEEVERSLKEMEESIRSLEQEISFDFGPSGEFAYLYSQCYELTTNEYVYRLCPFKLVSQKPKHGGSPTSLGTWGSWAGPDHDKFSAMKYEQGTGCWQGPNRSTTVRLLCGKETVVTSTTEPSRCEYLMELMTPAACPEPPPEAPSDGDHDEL
T2 sequence (Q8BHN3 33-944): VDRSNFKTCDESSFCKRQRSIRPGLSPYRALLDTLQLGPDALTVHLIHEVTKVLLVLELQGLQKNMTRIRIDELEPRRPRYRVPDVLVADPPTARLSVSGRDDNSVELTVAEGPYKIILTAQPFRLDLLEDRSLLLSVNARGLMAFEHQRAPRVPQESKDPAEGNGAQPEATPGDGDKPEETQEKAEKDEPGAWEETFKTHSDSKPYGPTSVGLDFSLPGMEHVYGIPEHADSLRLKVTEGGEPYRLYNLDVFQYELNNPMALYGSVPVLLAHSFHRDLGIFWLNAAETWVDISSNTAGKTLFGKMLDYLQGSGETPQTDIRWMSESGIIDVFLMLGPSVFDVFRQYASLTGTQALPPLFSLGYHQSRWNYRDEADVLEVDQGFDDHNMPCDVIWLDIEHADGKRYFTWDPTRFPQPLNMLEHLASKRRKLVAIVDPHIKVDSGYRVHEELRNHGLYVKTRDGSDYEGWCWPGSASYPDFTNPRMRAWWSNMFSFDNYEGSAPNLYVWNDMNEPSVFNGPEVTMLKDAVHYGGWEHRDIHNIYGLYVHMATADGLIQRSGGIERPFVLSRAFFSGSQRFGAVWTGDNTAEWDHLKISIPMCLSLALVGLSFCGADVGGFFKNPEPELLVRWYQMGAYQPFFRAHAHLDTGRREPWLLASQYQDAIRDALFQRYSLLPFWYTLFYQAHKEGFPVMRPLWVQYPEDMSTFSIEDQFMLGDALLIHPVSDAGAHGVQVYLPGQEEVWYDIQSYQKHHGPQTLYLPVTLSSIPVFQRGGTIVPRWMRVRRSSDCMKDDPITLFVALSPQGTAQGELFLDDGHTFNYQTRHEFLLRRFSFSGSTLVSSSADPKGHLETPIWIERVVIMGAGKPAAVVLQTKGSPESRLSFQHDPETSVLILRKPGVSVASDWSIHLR

## CS(=O)(=O)c1cc(NCc2ccc(CN3C[C@H](O)[C@@H](O)[C@H](O)[C@H]3CO)cc2)cc(-c2cccnn2)c1 [Compound 1058, (2R,3R,4R,5S)-2-(hydroxymethyl)-1-{[4-({[3-methanesulfonyl-5-(pyridazin-3-yl)phenyl]amino}methyl)phenyl]methyl}piperidine-3,4,5-triol]
[1]
  IC50: 21 nM
[2]
  IC50: 114 nM
[3]
  IC50: 78 nM

## COc1cc(NCCc2ccc(CCN3C[C@H](O)[C@@H](O)[C@H](O)[C@H]3CO)cc2)cc(-c2ncccn2)c1 [Compound 1156, (2R,3R,4R,5S)-2-(hydroxymethyl)-1-{2-[4-(2-{[3-methoxy-5-(pyrimidin-2-yl)phenyl]amino}ethyl)phenyl]ethyl}piperidine-3,4,5-triol]
[1]; [4]
  IC50: 1270 nM
[2]
  IC50: 118 nM
[3]
  IC50: 814 nM

## N#Cc1cc(NCc2cccc(CN3C[C@H](O)[C@@H](O)[C@H](O)[C@H]3CO)c2)cc(C2=COCCO2)c1 [Compound 1044, 3-(5,6-dihydro-1,4-dioxin-2-yl)-5-{[(3-{[(2R,3R,4R,5S)-3,4,5-trihydroxy-2-(hydroxymethyl)piperidin-1-yl]methyl}phenyl)methyl]amino}benzonitrile]
[1]
  IC50: 3 nM
[2]
  IC50: 2670 nM
[3]
  IC50: 1420 nM

## CS(=O)(=O)c1cc(Br)cc(NCc2cccc(CN3C[C@H](O)[C@@H](O)[C@H](O)[C@H]3CO)c2)c1 [Compound 1022, (2R,3R,4R,5S)-1-[(3-{[(3-bromo-5-methanesulfonylphenyl)amino]methyl}phenyl)methyl]-2-(hydroxymethyl)piperidine-3,4,5-triol]
[1]
  IC50: 19 nM
[2]
  IC50: 7920 nM
[3]
  IC50: 803 nM

## [N-]=[N+]=Nc1ccc(NCCc2ccc(CCN3C[C@H](O)[C@@H](O)[C@H](O)[C@H]3CO)s2)c([N+](=O)[O-])c1 [Compound 1186, (2R,3R,4R,5S)-1-[2-(5-{2-[(4-azido-2-nitrophenyl)amino]ethyl}hiophen-2-yl)ethyl]-2-(hydroxymethyl)piperidine-3,4,5-triol]
[1]; [4]
  IC50: 3 nM
[2]
  IC50: 1 nM
[3]
  IC50: 263 nM

## OC[C@@H]1[C@@H](O)[C@H](O)[C@@H](O)CN1CCc1ccc(CCNc2cc(Cl)cc(-c3cccnn3)c2)cc1 [Compound 1163, (2R,3R,4R,5S)-1-{2-[4-(2-{[3-chloro-5-(pyridazin-3-yl)phenyl]amino}ethyl)phenyl]ethyl}-2-(hydroxymethyl)piperidine-3,4,5-triol]
[1]
  IC50: 211 nM
[2]
  IC50: < 1 nM
[3]
  IC50: 93 nM

## [N-]=[N+]=Nc1ccc(NCCc2cc(CCN3C[C@H](O)[C@@H](O)[C@H](O)[C@H]3CO)cs2)c([N+](=O)[O-])c1 [Compound 1179, (2R,3R,4R,5S)-1-[2-(5-{2-[(4-azido-2-nitrophenyl)amino]ethyl}thiophen-3-yl)ethyl]-2-(hydroxymethyl)piperidine-3,4,5-triol]
[1]; [4]
  IC50: < 1 nM
[2]
  IC50: < 1 nM
[3]
  IC50: 692 nM

## CC(=O)Nc1cc(NCCCCCCN2C[C@H](O)[C@@H](O)[C@H](O)[C@H]2CO)cc(-c2ncccn2)c1 [Compound 1125, N-[3-(pyrimidin-2-yl)-5-({6-[(2R,3R,4R,5S)-3,4,5-trihydroxy-2-(hydroxymethyl)piperidin-1-yl]hexyl}amino)phenyl]acetamide]
[1]; [4]
  IC50: 337 nM
[2]
  IC50: 19 nM
[3]
  IC50: 80 nM

## CN(C)C(=O)c1cc(NCCCCCCN2C[C@H](O)[C@@H](O)[C@H](O)[C@H]2CO)cc(-c2ncccn2)c1 [Compound 1126, N,N-dimethyl-3-(pyrimidin-2-yl)-5-({6-[(2R,3R,4R,5S)-3,4,5-trihydroxy-2-(hydroxymethyl)piperidin-1-yl]hexyl}amino)benzamide]
[1]; [4]
  IC50: 550 nM
[2]
  IC50: 35 nM
[3]
  IC50: 86 nM

## OC[C@@H]1[C@@H](O)[C@H](O)[C@@H](O)CN1CCCCCCNc1cc(-c2ncccn2)cc(C2CC2)c1 [Compound 1009, (2R,3R,4R,5S)-1-(6-{[3-cyclopropyl-5-(pyrimidin-2-yl)phenyl]amino}hexyl)-2-(hydroxymethyl)piperidine-3,4,5-triol]
[1]; [4]
  IC50: 163 nM
[2]
  IC50: 17 nM
[3]
  IC50: 62 nM

## OC[C@@H]1[C@@H](O)[C@H](O)[C@@H](O)CN1CCCCCCNc1cc(-c2cccnn2)cc(C2CC2)c1 [Compound 1008, (2R,3R,4R,5S)-1-(6-{[3-cyclopropyl-5-(pyridazin-3-yl)phenyl]amino}hexyl)-2-(hydroxymethyl)piperidine-3,4,5-triol]
[1]
  IC50: 103 nM
[2]
  IC50: 12 nM
[3]
  IC50: 64 nM

## OC[C@@H]1[C@@H](O)[C@H](O)[C@@H](O)CN1CCCCCCNc1cc(Cl)cc(CN2CCCO2)c1 [Compound 1183, (2R,3R,4R,5S)-1-[6-({3-chloro-5-[(1,2-oxazolidin-2-yl)methyl]phenyl}amino)hexyl]-2-(hydroxymethyl)piperidine-3,4,5-triol]
[1]; [4]
  IC50: 154 nM
[2]
  IC50: 4 nM
[3]
  IC50: 90 nM

## O=[N+]([O-])c1cc(C2CC2)ccc1NCCCCCCN1C[C@H](O)[C@@H](O)[C@H](O)[C@H]1CO [Compound 1136, (2R,3R,4R,5S)-1-{6-[(4-cyclopropyl-2-nitrophenyl)amino]hexyl}-2-(hydroxymethyl)piperidine-3,4,5-triol]
[1]; [4]
  IC50: 25 nM
[2]
  IC50: 1 nM
[3]
  IC50: 9 nM

## COc1cc(C#N)cc(NCCc2ccc(CCN3C[C@H](O)[C@@H](O)[C@H](O)[C@H]3CO)cc2)c1 [Compound 1133, 3-methoxy-5-{[2-(4-{2-[(2R,3R,4R,5S)-3,4,5-trihydroxy-2-(hydroxymethyl)piperidin-1-yl]ethyl}phenyl)ethyl]amino}benzonitrile]
[1]; [4]
  IC50: 1280 nM
[2]
  IC50: 5 nM
[3]
  IC50: 542 nM

## [N-]=[N+]=Nc1ccc(NCCc2ccc(CCN3C[C@@H](O)[C@H](O)[C@@H](O)[C@@H]3CO)c3ccccc23)c([N+](=O)[O-])c1 (stereo in doubt) [Compound 1178, (2S,3S,4S,5R)-1-[2-(4-{2-[(4-azido-2-nitrophenyl)amino]ethyl}naphthalen-1-yl)ethyl]-2-(hydroxymethyl)piperidine-3,4,5-triol]
[1]; [4]
  IC50: 2730 nM
[2]
  IC50: 9360 nM
[3]
  IC50: 5930 nM

## CC(C)(C)c1cc(NCCCCCCN2C[C@H](O)[C@@H](O)[C@H](O)[C@H]2CO)cc(-c2ncccn2)c1 [Compound 1151, (2R,3R,4R,5S)-1-(6-{[3-tert-butyl-5-(pyrimidin-2-yl)phenyl]amino}hexyl)-2-(hydroxymethyl)piperidine-3,4,5-triol]
[1]; [4]
  IC50: 99 nM
[2]
  IC50: < 1 nM
[3]
  IC50: 24 nM

## OC[C@@H]1[C@@H](O)[C@H](O)[C@@H](O)CN1Cc1ccc(CNc2cc(-c3ncccn3)cc(C3CC3)c2)cc1 [Compound 1013, (2R,3R,4R,5S)-1-{[4-({[3-cyclopropyl-5-(pyrimidin-2-yl)phenyl]amino}methyl)phenyl]methyl}-2-(hydroxymethyl)piperidine-3,4,5-triol]
[1]; [4]
  IC50: 53 nM
[2]
  IC50: 153 nM
[3]
  IC50: 254 nM

## COC(OC)c1cc(NCCCCCCN2C[C@H](O)[C@@H](O)[C@H](O)[C@H]2CO)cc(-c2ncccn2)c1 [Compound 1124, (2R,3R,4R,5S)-1-(6-{[3-(dimethoxymethyl)-5-(pyrimidin-2-yl)phenyl]amino}hexyl)-2-(hydroxymethyl)piperidine-3,4,5-triol]
[1]; [4]
  IC50: 513 nM
[2]
  IC50: 18 nM
[3]
  IC50: 36 nM

## Cc1nc2cc(-c3ncccn3)ccc2n1CCCCCCN1C[C@H](O)[C@@H](O)[C@H](O)[C@H]1CO [Compound 1339, (2R,3R,4R,5S)-2-(hydroxymethyl)-1-{6-[2-methyl-5-(pyrimidin-2-yl)-1H-1,3-benzodiazol-1-yl]hexyl}piperidine-3,4,5-triol]
[1]
  IC50: 78 nM
[2]
  IC50: 194 nM
[3]
  IC50: 240 nM

## OC[C@@H]1[C@@H](O)[C@H](O)[C@@H](O)CN1CCCCCCNc1ccc(-c2cnccn2)cc1Cl [Compound 1198, (2R,3R,4R,5S)-1-(6-{[2-chloro-4-(pyrazin-2-yl)phenyl]amino}hexyl)-2-(hydroxymethyl)piperidine-3,4,5-triol]
[1]; [4]
  IC50: 12 nM
[2]
  IC50: 17 nM
[3]
  IC50: 47 nM
